Data reported in patent US20100184703A1, “USE OF PEPTIDE DERIVATIVES FOR TREATING PATHOLOGIES RESULTING FROM ISCHEMIA” (CHIESI FARMACEUTICI S.p.A., priority 2007, published 2010).

Test system: ANF, BNP, fibronectin, β-MHC, TNFR1, TNFR2, TNFα, caspase-2 mRNA
Assay: Quantitative RT-PCR of heart failure, fibrosis, hypertrophy and TNFα signaling markers after ischemia/reperfusion
Type: in vivo, rat
Conditions: IR model
Description: In a second series of experiments, quantitative RT-PCR was performed to evaluate the level of expression of 2 markers of heart failure, Atrial Natriuretic Factor (ANF) and Brain Natriuretic Factor (BNP) as well as a marker of myocardial fibrosis, fibronectine, and myocardial hypertrophy, βMHC. […] B. mRNA expression levels of fibronectin a marker of fibrosis development, and β-Myosin Heavy Chain (β-MHC) a marker for hypertrophy development

[1] = increase in vehicle-injected animals

Etanercept
mRNA expression level of TNFα [1]: not by Etanercept
mRNA expression level of TNFα receptor 2 (TNFR2) [1]: not by Etanercept
mRNA expression level of caspase-2 [1]: not by Etanercept
mRNA expression level of fibronectin (marker of fibrosis development): could only prevent fibrosis development
mRNA expression level of Atrial Natriuretic Factor (ANF) (marker of heart failure): significant increase
mRNA expression level of brain natriuretic peptide (BNP) (marker of heart failure): significant increase
